This note sets out measurements from patent US3968214A, “5-Methylthio-pyrimidine vasodilators” (Produits Chimiques Ugine Kuhlmann, priority 1973, dated 1976).

One data set has as its system mice. Nature of the data set: Acute toxicity in mice, intravenous and oral (LD50). Format: in vivo. The text has this:
The acute toxicities of the compounds according to the invention have been determined CD 1 mice (Charles RIVER) by intravenous and oral methods. The LD50 calculated by the quantal cumulative method of J. J. Reed and H. Muench (Amer. J. Hyg. 1938, 27, 493) are collected in the following Table: […]

Data set [1] concerns isolated duodenum of rabbit, spasms induced by barium chloride. Nature of the data set: Spasmolytic activity, musculotrope versus BaCl2, isolated duodenum (Magnus). The text has this:
The spasmolytic activities are known by means of the technique of R. Magnus (Arch. Ges. Physiol., 1904, 102, 123) on the isolated duodenum of rabbits. The spasmolytic neurotropes inhibit the contractions of the organ caused by acetylcholine, while the musculotropes prevent the spasms induced by barium chloride. The EC 50 expressed in mg/litre are collected in the following Table where EC denotes "Effective concentration".

The next data set deals with glycemia. Nature of the data set: Hypoglycemiant activity, variation of glycemia after 4 days of daily oral treatment. Format: in vivo, male CD rats (Charles RIVER). The settings on record: rat. As to the method: The hypoglycemiant properties have been studied on the male CD rats (Charles RIVER) weighing 200 to 250 g, in which the glycemia is controlled before treatment and then after 4 days of daily oral treatment. The seric glucose is determined by the method of W. S. Hoffmann (J. Biol. Chem., 1937, 120, 51). Groups of 10 rats are used and the hypoglycemiant activity is expressed by the percentage variation of the average glycemia of the treated animals with respect to that of the controls. If it is necessary, the statistical significance of the difference is determined by the test of the coefficient "t" of Student.

With `CSc1c(NCCN(C(C)C)C(C)C)nc(N(C)c2ccccc2)nc1OCCCN(C)C` [Example 30, 2-N-methyl-N-phenyl-amino-4-(2'-di-isopropyl-amino)-ethylamino-5-methyl-thio-6-(dimethylaminoethyl)-methoxy-pyrimidine], the “Acute toxicity to mice LD 50, intravenous” value with mice (intravenous) stood at 9.5 mg/kg. Further, the “Acute toxicity to mice LD 50, orally” value in the data set on mice (oral) is reported as 200 mg/kg. In addition, the “Spasmolytic activity EC 50, musculotrope versus BaCl2” value in data set [1] turned out to be 1.00 µg/mL. In addition, in the data set with glycemia, the “hypoglycemiant properties (in words)” value is recorded as “strong hypoglycemiant properties”.
